Assay results published in US4259235A, “Tricyclic nitrogenous compounds having string plant growth regulating properties” (BASF Aktiengesellschaft, priority 1977, dated 1981).

Legend:
spring barley [1] = experiment: Growth height of spring barley, soil treatment, Example 10; type: in vivo, spring barley ("Union" variety)
Procedure: (§1) Spring wheat ("Opal" variety) and spring barley ("Union" variety) were grown under greenhouse conditions in plastic dishes 11.5 cm in diameter, in a peat substrate provided with sufficient nutrients. For the soil (preemergence) treatment, the active ingredients were poured, at two application rates, as aqueous formulations onto the surface of the substrate after sowing.
(§2) The plant height was measured at the end of the experiment. The figures obtained show the shortening effect of the active ingredients under investigation. The prior art compound β-chloroethylphosphonic acid (Ethephon, German Printed Application DAS No. 1,667,968) was used for comparison purposes.

spring barley [2] = experiment: Growth height of spring barley, leaf treatment, Example 10; type: in vivo, spring barley ("Union" variety)
Procedure: as §1
Leaf treatment was effected by spraying the plants at a growth height of 10 cm with aqueous formulations of the active ingredients at two application rates.
as §2

grass = experiment: Growth height of, and amount of mowings in, grass, Example 12; type: in vivo; conditions: for First mowing, growth height, relative / First mowing, mowings, relative / Second mowing, growth height, relative / Second mowing, mowings, relative: control = 100
Description: In an experiment in large vessels, lawn seed of the following standard composition was sown in a loamy soil: Agrostis tenuis (10%), Cynosurus cristatus (10%), Festuca rubra (15%), Lolium perenne (35%) and Poa pratensis (30%). 1.5 g of N as ammonium nitrate and 1 g of P2 O5 as secondary potassium phosphate were applied as fertilizer. After the grass had been cut twice, the active ingredients were sprayed in conventional manner at various application rates onto the grass which was 4 cm high. The growth height and the mowings were determined 19 days after the treatment. Compared with the control, the treated plants reacted with most considerable height reductions and a proportionate decrease in mowings.

## Brc1ccc(C2=NOC3C4CC(C5N=NC45)C23)cc1 (centres unmarked) [drawing 405]
Spring barley [1]; 3 kg/ha
  Plant height: 28.0 cm
  Plant height, % of untreated control: 81.6%
Spring barley [1]; 12 kg/ha
  Plant height: 26.0 cm
  Plant height, % of untreated control: 75.8%

## O=[N+]([O-])c1ccc(C2=NOC3C4CC(C5N=NC45)C23)cc1 (centres unmarked) [drawing 406]
Spring barley [1]; 3 kg/ha
  Plant height: 27.0 cm
  Plant height, % of untreated control: 78.8%
Spring barley [1]; 12 kg/ha
  Plant height: 24.0 cm
  Plant height, % of untreated control: 70.0%

## Cc1ccc(C2=NOC3C4CC(C5N=NC45)C23)cc1 (centres unmarked) [drawing 407]
Spring barley [1]; 3 kg/ha
  Plant height: 25.0 cm
  Plant height, % of untreated control: 72.9%
Spring barley [1]; 12 kg/ha
  Plant height: 21.0 cm
  Plant height, % of untreated control: 61.2%

## COc1ccc(C2=NOC3C4CC(C5N=NC45)C23)cc1 (centres unmarked) [drawing 408]
Spring barley [1]; 3 kg/ha
  Plant height: 30.0 cm
  Plant height, % of untreated control: 87.5%
Spring barley [1]; 12 kg/ha
  Plant height: 29.0 cm
  Plant height, % of untreated control: 84.5%

## Clc1ccc(C2=NOC3C4CC(C5N=NC45)C23)cc1 (centres unmarked) [drawing 409]
Spring barley [1]; 3 kg/ha
  Plant height: 26.0 cm
  Plant height, % of untreated control: 75.8%
Spring barley [1]; 12 kg/ha
  Plant height: 24.0 cm
  Plant height, % of untreated control: 70.0%

## Clc1ccc(C2N=NC3C4CC(C5N=NC45)C23)cc1 (centres unmarked) [drawing 410]
Spring barley [2]; 1.5 kg/ha
  Plant height: 22.0 cm
  Plant height, % of untreated control: 78.6%
Spring barley [2]; 6.0 kg/ha
  Plant height: 19.5 cm
  Plant height, % of untreated control: 69.6%

## Brc1ccc(C2=NOC3C4CC(C5N=NC45)C23)cc1 (centres unmarked) [drawing 411]
Spring barley [2]; 1.5 kg/ha
  Plant height: 25.5 cm
  Plant height, % of untreated control: 91.1%
Spring barley [2]; 6.0 kg/ha
  Plant height: 25.0 cm
  Plant height, % of untreated control: 89.3%

## O=[N+]([O-])c1ccc(C2=NOC3C4CC(C5N=NC45)C23)cc1 (centres unmarked) [drawing 412]
Spring barley [2]; 1.5 kg/ha
  Plant height: 25.0 cm
  Plant height, % of untreated control: 89.3%
Spring barley [2]; 6.0 kg/ha
  Plant height: 24.5 cm
  Plant height, % of untreated control: 87.5%

## Cc1ccc(C2=NOC3C4CC(C5N=NC45)C23)cc1 (centres unmarked) [drawing 413]
Spring barley [2]; 1.5 kg/ha
  Plant height: 25.5 cm
  Plant height, % of untreated control: 91.1%
Spring barley [2]; 6.0 kg/ha
  Plant height: 25.0 cm
  Plant height, % of untreated control: 89.3%

## Clc1ccc(C2=NOC3C4CC(C5N=NC45)C23)cc1 (centres unmarked) [drawing 414]
Spring barley [2]; 1.5 kg/ha
  Plant height: 26.0 cm
  Plant height, % of untreated control: 92.9%
Spring barley [2]; 6.0 kg/ha
  Plant height: 24.5 cm
  Plant height, % of untreated control: 87.5%

## FC(F)(F)c1cccc(NC2C(I)C3CC2C2N=NC32)c1 (centres unmarked) [drawing 415]
Spring barley [2]; 1.5 kg/ha
  Plant height: 25.0 cm
  Plant height, % of untreated control: 89.3%
Spring barley [2]; 6.0 kg/ha
  Plant height: 24.0 cm
  Plant height, % of untreated control: 85.7%

## c1ccc(C2=NOC3C4CC(C5N=NC45)C23)cc1 (centres unmarked) [drawing 424]
grass; 3.0 kg/ha
  First mowing, growth height: 20.0 cm
  First mowing, mowings: 116.3 g
  Second mowing, growth height: 19.0 cm
  Second mowing, mowings: 94.8 g
  First mowing, growth height, relative: 91.7
  First mowing, mowings, relative: 86.7
  Second mowing, growth height, relative: 95.0
  Second mowing, mowings, relative: 104.6
grass; 6.0 kg/ha
  First mowing, growth height: 17.0 cm
  First mowing, mowings: 101.1 g
  Second mowing, growth height: 16.5 cm
  Second mowing, mowings: 85.2 g
  First mowing, growth height, relative: 78.0
  First mowing, mowings, relative: 75.3
  Second mowing, growth height, relative: 82.5
  Second mowing, mowings, relative: 94.0

## Clc1ccc(C2N=NC3C4CC(C5N=NC45)C23)cc1 (centres unmarked) [drawing 425]
grass; 3.0 kg/ha
  First mowing, growth height: 20.0 cm
  First mowing, mowings: 125.1 g
  Second mowing, growth height: 19.0 cm
  Second mowing, mowings: 89.9 g
  First mowing, growth height, relative: 91.7
  First mowing, mowings, relative: 93.2
  Second mowing, growth height, relative: 95.0
  Second mowing, mowings, relative: 99.2
grass; 6.0 kg/ha
  First mowing, growth height: 18.0 cm
  First mowing, mowings: 119.0 g
  Second mowing, growth height: 19.0 cm
  Second mowing, mowings: 92.2 g
  First mowing, growth height, relative: 82.6
  First mowing, mowings, relative: 88.7
  Second mowing, growth height, relative: 95.0
  Second mowing, mowings, relative: 101.8

## Clc1ccc(C2=NOC3C4CC(C5N=NC45)C23)cc1 (centres unmarked) [drawing 426]
grass; 3.0 kg/ha
  First mowing, growth height: 21.0 cm
  First mowing, mowings: 117.7 g
  Second mowing, growth height: 18.5 cm
  Second mowing, mowings: 75.3 g
  First mowing, growth height, relative: 96.3
  First mowing, mowings, relative: 87.7
  Second mowing, growth height, relative: 92.5
  Second mowing, mowings, relative: 83.1
grass; 6.0 kg/ha
  First mowing, growth height: 18.5 cm
  First mowing, mowings: 114.0 g
  Second mowing, growth height: 17.0 cm
  Second mowing, mowings: 72.1 g
  First mowing, growth height, relative: 84.9
  First mowing, mowings, relative: 84.9
  Second mowing, growth height, relative: 85.0
  Second mowing, mowings, relative: 79.6
